# Laboratory results from US20250002435A1, “ARYLATED FENCHONE DERIVATIVES, COMPOSITIONS COMPRISING THEM, PROCESSES FOR THEIR PREPARATION AND USES THEREOF” (priority 2021, published 2025).
# “And” between values parts separate entries of the source, which are not always exact repeats. Equal entries are not always repeated.
# Assays:
# hCB2R [1] = molecular target: T1, hCB2R (Homo sapiens (Human), UniProt P34972); assay: [35S]GTPγS binding assay, hCB2R CHO cell membranes; type: biochemical; details: for functional activity at hCB2R (agonist / inverse agonist): [35S]GTPγS binding
# T1 sequence (P34972 whole entry): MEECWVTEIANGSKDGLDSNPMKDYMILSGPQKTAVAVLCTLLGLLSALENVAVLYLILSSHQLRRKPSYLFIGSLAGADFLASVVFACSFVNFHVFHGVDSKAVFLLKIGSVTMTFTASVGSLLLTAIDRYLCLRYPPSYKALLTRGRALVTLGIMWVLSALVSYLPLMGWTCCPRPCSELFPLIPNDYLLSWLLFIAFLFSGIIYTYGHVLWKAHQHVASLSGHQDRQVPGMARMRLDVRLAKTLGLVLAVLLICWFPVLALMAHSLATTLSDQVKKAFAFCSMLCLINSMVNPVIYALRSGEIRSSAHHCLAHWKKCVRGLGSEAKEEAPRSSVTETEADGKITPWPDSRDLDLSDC
# Procedure: Functional Characterization.
# The method used for measuring agonist-stimulated binding of [^35S]GTPγS was based on a described protocol. The assays were carried out with GTPγS assay buffer (50 mM Tris HCl (pH 7.4), 0.2 mM EGTA, 9 mM MgCl2, 150 mM NaCl, 1 mg/ml BSA). Briefly, membranes (5 μg protein) were incubated in assay buffer containing 100 μM GDP, 0.05 nM [^35S]GTPγS, test compounds at various concentrations in siliconized glass tubes. Bound ligand was separated from free ligand by vacuum filtration. Nonspecific binding was determined using 10 μM GTPS. Basal binding was assayed in the absence of the ligand and in the presence of GDP.
# mCB1R = mCB1R (Mus musculus (Mouse), UniProt P47746); assay: [3H]CP-55,940 competition displacement binding, crude membranes from mouse brain; details: displacement of [3H]CP-55,940; NB = No binding detected at concentrations up to 10 μM; read-out: Ki (nM) mCB1R
# Chain of mCB1R (P47746 whole entry): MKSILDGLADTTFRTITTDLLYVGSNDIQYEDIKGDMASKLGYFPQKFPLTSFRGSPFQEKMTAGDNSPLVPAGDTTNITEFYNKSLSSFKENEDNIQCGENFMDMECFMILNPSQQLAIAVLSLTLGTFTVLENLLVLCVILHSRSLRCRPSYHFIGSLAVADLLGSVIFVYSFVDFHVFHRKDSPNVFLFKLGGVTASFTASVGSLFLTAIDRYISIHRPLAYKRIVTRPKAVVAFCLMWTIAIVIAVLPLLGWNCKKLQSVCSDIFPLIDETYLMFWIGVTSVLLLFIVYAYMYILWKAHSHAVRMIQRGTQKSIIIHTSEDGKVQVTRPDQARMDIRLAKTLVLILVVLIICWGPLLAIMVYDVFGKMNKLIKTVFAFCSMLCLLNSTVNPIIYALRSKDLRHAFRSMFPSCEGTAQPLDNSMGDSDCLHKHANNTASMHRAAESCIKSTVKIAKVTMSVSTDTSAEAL
# Procedure: (§1) Affinity for Cannabinoid Receptors. The compounds were further characterized using a radioligand binding assay to determine their affinities for CB1R and CB2R based on each test compound's ability to displace the radiolabeled CB1R/CB2R agonist CP-55,940 from membranes prepared from a mouse brain (a source of CB1R) and membranes of cells expressing the human CB2R. […] Therefore, the compounds were assayed using membranes from CHO-K1 cells expressing the human CB2R (hCB2R).
# (§2) Membranes from cells expressing human CB2R were purchased from Charles River, (Cat #A308; Ohio, US). Solutions of test compounds ranging from 0.1 nM to 10 mM were prepared in DMSO. The desired amount of membrane preparation was diluted with ice-cold assay buffer (50 mM Tris-HCl, 2.5 mM EDTA, 5 mM MgCl2, 0.1% BSA, pH 7.4) and was vortexed. […] The assays were incubated for 90 minutes at 30° C. and then immediately filtered on WHATMAN GF/B FilterPaper (Fired) using a Brandel M-24R Harvester followed by six washes with ice cold wash buffer (50 mM Tris-HCl, 2.5 mM EDTA, 5 mM MgCl2, 0.1% BSA, pH 7.4). Radioactivity was detected by adding the FilterPaper directly to the ULTIMA GOLD scintillation cocktail (PerkinElmer), incubation at 20° C. for 60 min and then counted using a Tri-Carb 4910TR liquid scintillation counter.
# hCB2R [2] = molecular target: T1, hCB2R; assay: [3H]CP-55,940 competition displacement binding, membranes of CHO-K1 cells expressing human CB2R
# Procedure: as §1, §2
# [3] = test system: zymosan-induced swelling of hind paw; assay: zymosan-induced hind paw swelling in mice (5b, 5d, CBD); type: in vivo, mouse
# Procedure: (§3) Cannabidiol (CBD), a major constituent of Cannabis, resembles fenchone derivatives in structure. It has powerful anti-inflammatory and anti-anxiety properties and therefore it is used as a positive control. […] In accordance with these findings, the anti-nociceptive effect, as determined by the von Frey monofilament assay peaked at 6 h (p<0.01) (FIG. 10C).
# (§4) To induce inflammation, 40 μL of 1.5% (w/v) zymosan A (Sigma) suspended in 0.9% saline was injected into the sub-planter surface of the right hind paw of the mice. Immediately after zymosan injection, fenchone derivative was injected intraperitoneally (i.p.) after the compounds were dissolved in 0.1 mL vehicle containing ethanol:Cremophore:saline at a ratio of 1:1:18. Control mice were injected with the vehicle only. After 2, 6 and 24 hrs, paw swelling and pain perception were measured.
# The paw swelling (thickness) was measured by calibrated calipers (0.01 mm), 2, 6 and 24 hrs following injections of zymosan alone or Fenchone derivatives.
# [4] = test system: zymosan-induced hyperalgesia; assay: von Frey nociceptive filament assay after zymosan (5b, 5d, CBD); type: in vivo, mouse
# Procedure: as §3, §4
# (§5) The hyperalgesia was evaluated by the paw withdrawal von Frey test at 2, 6, and 24 hrs following injections of zymosan and/or the test compounds. […] In this study, only 1.4-60 g corresponding to 4.17 to 5.88 log of force was used, to test the mouse sensitivity to a mechanical stimulus on the swollen paw. The measurements were performed in a quiet room. Before paw pain measurements, the animals were held for 10 sec. The trained investigator applied the filament to the central area of the hind paw with gradual increasing size. The test consisted of poking the middle of the hind paw to provoke a flexion reflex followed by a clear flinch response after paw withdrawal. Each one of the von Frey filaments was applied for approximately 3-4 s to induce the end-point reflex. The first testing was done by using the force filament of 1.4 g. If there was no withdrawal response, the next higher stimulus was tried. The mechanical threshold force (in grams (g)) was defined as the lowest force imposed by two von Frey monofilaments of various sizes, required to produce a paw retraction. The untreated left hind paw served as a control.
# TNFα = assay: serum TNFα ELISA 24 h after zymosan injection; type: in vivo, mouse; details: AM630 added to 1D
# Procedure: Blood was collected 24 h after zymosan injection, and the sera were assayed for TNFα using a mouse TNFα ELISA kit (R&D Systems, Minneapolis, MN, USA), according to the manufacturer's instructions.
# [5] = test system: zymosan-induced hyperalgesia; assay: zymosan mouse paw inflammatory pain model, von Frey test, with or without CB2 antagonists; type: in vivo; details: addition of AM630, 24 h
# Procedure: (§6) To induce inflammation, 40 μL of 1.5% (w/v) zymosan A (Sigma) suspended in 0.9% saline was injected into the sub-planter surface of the right hind paw of the mice. Immediately after zymosan injection, antagonists were injected intraperitoneally (IP) and after 30 minutes, the fenchone derivatives dissolved in 0.1 mL vehicle containing ethanol:Cremophore:saline at a ratio of 1:1:18 were injected. Control mice were injected with the vehicle only. After 2, 6, and 24 hrs, paw swelling, and pain perception were measured.
# as §5, with “Specifically, measurement of Oedema Formation was assessed by monitoring paw swelling via calibrated calipers (0.01 mm), 6 and 24 hrs following injections of zymosan alone and/or the test compounds. Pain hyperalgesia” for “The hyperalgesia”, “at” for “at 2,”, “24 h” for “24 hrs”
# [6] = test system: zymosan-induced paw swelling; assay: zymosan mouse paw inflammatory pain model, paw swelling, with or without CB2 antagonists; type: in vivo; details: 10 mg/kg AM630 with 1D, 24 h
# Procedure: as §6
# as §5, with “Specifically, measurement of Oedema Formation was assessed by monitoring paw swelling via calibrated calipers (0.01 mm), 6 and 24 hrs following injections of zymosan alone and/or the test compounds. Pain hyperalgesia” for “The hyperalgesia”, “at” for “at 2,”, “24 h” for “24 hrs”
# [7] = test system: medial meniscal tear (MMT) post-traumatic OA; assay: rat MMT model, histopathology of medial tibial joint 28 days post MMT; type: in vivo; details: FGF18 60 μg/mL IA
# Procedure: (§7) The rat OA model employed was surgically-induced medial meniscal tear (MMT), wherein rats were anesthetized with Isoflurane (VetOne, catalogue No. 502017), and the right knee area was prepared for surgery. A skin incision was made over the medial aspect of the knee, and the medial collateral ligament was exposed by blunt dissection and then transected. The medial meniscus was cut through the full thickness to simulate a complete tear. Skin and subcutis were closed with 4-0 Coated Vicryl (polyglactin 910) Violet Braided Suture (Ethicon, catalogue No. J399H), and slight hand pressure was applied to the wound for approximately 3 minutes for hemostasis. Subcutaneous (SC) dose of buprenorphine (0.05 mg/kg) administered after the animal awakened post-surgery. Rats were weighed daily on study days −1 through 7 and again on days 14, 21, and 28 (prior to necropsy). […] The animals were euthanized for necropsy 28 days post-surgery, following Isoflurane anesthesia, and bled to exsanguination followed by bilateral pneumothorax.
# Right knees were collected from all animals and trimmed of muscle and patellae. The trimmed joints were placed in 10% neutral buffered formalin (NBF) for histologic processing and evaluation. Samples were fixed for 3 days in 4% paraformaldehyde and decalcified for 21 days in 10% EDTA, pH=7.5. Then following dehydration in a graded series of ethanol washes, joints were embedded in paraffin and sectioned to 7 μm slices, following trimming off 1 mm until the tibiofemoral compartments are fully observed. Sections were obtained from each knee and stained with toluidine blue (0.04% in 0.2 M acetate buffer, Ph=4.0), based on a modified version of the methods used in Schmitz, et al. (2010), (11). Histopathology was carried out using an ocular micrometer. The following structural histological characterization was carried out:
# Regional differences across the tibial plateau were taken into consideration by dividing each section into three zones: (1) outside, (2) middle, and (3) inside. In the surgical OA model, the outside (zone-1) and middle (zone-2) thirds are most severely affected, and milder changes are present on the inside third (zone 3). When zones were scored individually, scores were assigned based on percent area of the zone affected. General cartilage degeneration including chondrocyte death/loss, proteoglycan (PG) loss, and collagen loss or fibrillation. Zones were scored individually (0-5; 5 representing sever damage; SD3), and a sum of all three zones was calculated (termed “Total Joint scores”).
# The zone related cartilage depth is calculated from the projected articular surface tot the tidemark. Reduced ratios embody less detected cartilage width vs projected cartilage with area, per zone.
# Osteophyte thickness (tidemark to furthest point extending toward synovium) was measured and scored according to a range from 0-5, as in SD4.
# Damage to the calcified cartilage layer and subchondral bone was scored using the criteria in SD5. Generally damage was considered as invagination of deep zone cartilage into the subchondral bone layer.
# […] Descriptions of other changes (typically fibrosis, or acute inflammation/neutrophil infiltration extending into the lateral compartment usually associated with IA treatments) were also provided, if present.
# [8] = test system: medial meniscal tear (MMT) post-traumatic OA; assay: rat medial meniscal tear (MMT) model, body weight and dynamic weight bearing; type: in vivo; details: FGF18 60 μg/mL IA
# Procedure: Initially, the required amount of HU308 dissolved in ethanol followed by addition of […] with vigorous mechanical agitation to form viscous micelle solution. Finally, the micelle solution was diluted in ice cold saline for injection or culture assays. Vehicle solution consisted of ethanol, cremophor and saline at 1:1:18 ratio. For intra-articular (IA) dosing 50 μL was injected into the tibiofemoral joint, at two doses; 8 and 24 μg/mL. Vehicle control contained 1:1:18 ethanol/Cremophor/saline, while positive control was of IA administered 60 μg/mL FGF-18 (R&D Systems, catalogue No. 8988-F18-050, lot No. BVE0521071) for IA dosing at 50 μL/knee.
# as §7
compound,measurement,setting,value
"CCCCCCC(C)(C)c1cc(O)c(C2(O)C3(C)CCC(C3)C2(C)C)c(OC)c1 (stereo not shown) [Compound 5d, 2-(2′-hydroxy-6′-methoxy-4′-(2″-methyloctan-2″-yl)phenyl)-1,3,3-trimethyl-bicyclo[2.2.1]heptan-2-ol]",functional activity at hCB2R (agonist / inverse agonist),hCB2R [1],agonist
same,EC50,"hCB2R [1]; [35S]GTPγS binding to hCB2R, two independent experiments in triplicate",14.8 nM
same,E(max) %,hCB2R [1]; percentage of HU-308 response at 1 μM,105.05%
same,Ki,mCB1R,451 nM
same,Ki,"hCB2R [2]; displacement of [3H]CP-55,940",24.6 nM
same,mCB1R/hCB2R,hCB2R [2]; selectivity index from Ki values,18.4
same,inhibition of inflammation (paw swelling),"[3]; 25 mg/kg ip, 24 h",55% and 56%
same,inhibition of inflammation (paw swelling),"[3]; 50 mg/kg ip, 2 h",38%
same,inhibition of inflammation (paw swelling),"[3]; 50 mg/kg ip, 6 h",67%
same,inhibition of inflammation (paw swelling),"[3]; 50 mg/kg ip, 24 h",56%
same,anti-nociceptive effect (von Frey),"[4]; 25 and 50 mg/kg ip, after 6 h",moderate anti-nociceptive effects
"CCCCCc1cc(O)c(C2(O)C3(C)CCC(C3)C2(C)C)c(OC)c1 (single isomer, unassigned) [Compound 5b, 2-(2′-hydroxy-6′-methoxy-4′-pentylphenyl)-1,3,3-trimethylbicyclo[2.2.1]heptan-2-ol]",functional activity at hCB2R (agonist / inverse agonist),hCB2R [1],agonist
same,anti-nociceptive effect (von Frey),"[4]; 10 and 25 mg/kg ip, after 6 and 24 h",strong anti-nociceptive effects
"COc1ccc(C(=O)c2c(C)n(CCN3CCOCC3)c3cc(I)ccc23)cc1 [AM630, reference compound]",effect of antagonist on the 1D reduction of TNF-α,TNFα,abolished
same,effect of antagonist on the 1D von Frey effect,[5],reversed
same,effect of antagonist on the 1D-reduced swelling,[6],fully inhibited its effect
"FGF18: positive control, IA administered 60 μg/mL FGF-18 (R&D Systems); anabolic effect to articular cartilage",mean zonal depth ratios,[7],reduced depth ratios
same,zone 3 cartilage degeneration score,[7],no beneficial effect
same,total zonal cartilage degeneration scores,[7]; vs 1D low dose and Vehicle,significantly reduced degenerative scores
same,medial synovial scores,[7]; vs all groups,highest
same,osteophyte measurements and scores,[7]; vs all groups,significantly higher measurements and scores
same,bone damage,[7]; vs the 1D high dose,relatively reduced levels
same,cumulative area under the curves for dynamic weight bearing (DWB),[8],highest values
"C=C(C)[C@@H]1CCC(C)=C[C@H]1c1c(O)cc(CCCCC)cc1O [CBD, Cannabidiol, reference compound]",inhibition of inflammation (paw swelling),"[3]; 5 mg/kg ip, 6 h, FIG. 10A",40%
same,inhibition of inflammation (paw swelling),"[3]; 5 mg/kg ip, 24 h, FIG. 10A",43%
same,inhibition of inflammation (paw swelling),"[3]; positive control in the 5d experiment (FIG. 10B), 6 h",58%
same,inhibition of inflammation (paw swelling),"[3]; positive control in the 5d experiment (FIG. 10B), 24 h",78%
same,time at which the anti-nociceptive effect peaked (von Frey),[4]; CBD positive control,6 h
